Consider 26 compounds from patent publication EP4559911A1, “NOVEL HETEROCYCLIC COMPOUND AND PHARMACEUTICAL COMPOSITION FOR INHIBITING AUTOTAXIN COMPRISING THE SAME” (Nextgen Bioscience Co., Ltd., priority 2022, dated 2024).

This assay concerns the target human Autotaxin protein (Homo sapiens, UniProt Q13822). Kind of assay: Evaluation of the inhibitory activity against human Autotaxin protein (18:1 LysoPC substrate, choline assay kit, absorbance at 570 nm). It is filed as biochemical. Conditions: compound at 500nM; 2 hours at 37 °C; % inhibition = (1 - absorbance test group / absorbance control group) X 100. The method, then:
Solutions of each compound synthesized (80 uM, 100% dimethyl sulfoxide) were sequentially diluted 5-fold with dimethyl sulfoxide to prepare 6 concentrations. Each concentration of the compound was diluted 2-fold with 1x test buffer (50 mM Tris-Cl (pH 8.0), 5 mM KCl, 1 mM CaCl2, 1 mM MgCl2, 140 mM NaCl, deionized water, 1 mg/mL BSA), and 1 uL (1.25% dimethyl sulfoxide) of this diluted mixture was dispensed into each well of a 96-well clear round-bottom plate. 9 uL of 1x test buffer was added, and 20 uL of 240 nM human autotaxin protein (buffer: 50 mM Tris-HCl, pH 8.0, with 150 mM sodium chloride and 20% glycerol) was added. 10 uL of sonicated 360 uM 18:1 LysoPC (diluted with 1x assay buffer) was added. The reaction was performed for 2 hours in a shaking incubator at 37 °C, and a secondary reaction mixture (choline assay kit, KA1662) (65 uL of 1x assay buffer: 1 uL of choline oxidase: 1 uL of dye probe) was prepared. 60 uL of the secondary reaction mixture was added to the plate where the reaction was performed, and incubated for 30 minutes in a shaker. The absorbance value was measured at a wavelength of 570 nm using a SpectraMax iD3 microplate reader. The percentage inhibition activity value (% inhibition) was calculated by the formula: (1 - absorbance value test group / absorbance value control group) X 100.
What is called inhibition is the change of the read-out against control, counted positive when it falls. For the compound `CC1(c2c[nH]nn2)CN(c2nnc(-c3cnc(NC4Cc5cc(F)c(F)cc5C4)nc3)o2)C1` [Example 51, N-(5,6-difluoro-2,3-dihydro-1H-inden-2-yl)-5-(5-(3-methyl-3-(1H-1,2,3-triazol-4-yl)azetidin-1-yl)-1,3,4-oxadiazol-2-yl)pyrimidin-2-amine], the inhibition at 0.5 µM turned out to be 91.8%.
On to `CC1(c2c[nH]nn2)CCN(c2nnc(-c3cnc(NC4Cc5cc(F)c(F)cc5C4)nc3)o2)C1` (centres unmarked) [Example 30, N-(5,6-difluoro-2,3-dihydro-1H-inden-2-yl)-5-(5-(3-methyl-3-(1H-1,2,3-triazol-4-yl)pyrrolidin-1-yl)-1,3,4-oxadiazol-2-yl)pyrimidin-2-amine], for which the inhibition at 0.5 µM was found to be 96.9%.
In the case of `c1ccc2c(c1)CC(Nc1ncc(-c3nnc(N4CC(c5c[nH]nn5)C4)o3)cn1)C2` [Example 42, 5-(5-(3-(1H-1,2,3-triazol-4-yl)azetidin-1-yl)-1,3,4-oxadiazol-2-yl)-N-(2,3-dihydro-1H-inden-2-yl)pyrimidin-2-amine] it was 97.8%; in that of `Fc1cc2c(cc1F)CC(Nc1ncc(-c3nnc(N4CC(c5c[nH]cn5)C4)o3)cn1)C2` [Example 76, 5-(5-(3-(1H-imidazol-4-yl)azetidin-1-yl)-1,3,4-oxadiazol-2-yl)-N-(5,6-difluoro-2,3-dihydro-1H-inden-2-yl)pyrimidin-2-amine], 64%; in that of `Fc1cc2c(cc1F)CC(Nc1ncc(C3CC(N4CC(c5c[nH]nn5)C4)=NO3)cn1)C2` (centres unmarked) [Example 43, 5-(3-(3-(1H-1,2,3-triazol-4-yl)azetidin-1-yl)-4,5-dihydroisoxazol-5-yl)-N-(5,6-difluoro-2,3-dihydro-1H-inden-2-yl)pyrimidin-2-amine], 35.4%.
Next, `COC(=O)C1CCN(c2nnc(-c3cnc(NC4Cc5cc(F)c(F)cc5C4)nc3)o2)C1` (centres unmarked) [Example 15, methyl 1-(5-(2-((5,6-difluoro-2,3-dihydro-1H-inden-2-yl)amino)pyrimidin-5-yl)-1,3,4-oxadiazol-2-yl)pyrrolidine-3-carboxylate]: 9.5%; `c1cc2c(cn1)CC(Nc1ncc(-c3nnc(N4CC(c5c[nH]nn5)C4)o3)cn1)C2` (centres unmarked) [Example 85, N-(5-(5-(3-(1H-1,2,3-triazol-4-yl)azetidin-1-yl)-1,3,4-oxadiazol-2-yl)pyrimidin-2-yl)-6,7-dihydro-5H-cyclopenta[c]pyridin-6-amine]: 19.8%.
Consider `O=c1[nH]nc(C2CCN(c3nnc(-c4cnc(NC5Cc6cc(F)c(F)cc6C5)nc4)o3)C2)o1` (centres unmarked) [Example 23, 5-(1-(5-(2-((5,6-difluoro-2,3-dihydro-1H-inden-2-yl)amino)pyrimidin-5-yl)-1,3,4-oxadiazol-2-yl)pyrrolidin-3-yl)-1,3,4-oxadiazol-2(3H)-one], for which the inhibition at 0.5 µM was found to be 91.6%.
`Fc1cc2c(cc1F)CC(Nc1ncc(C3CC(N4CCC(c5c[nH]nn5)C4)=NO3)cn1)C2` (centres unmarked) [Example 17, 5-(3-(3-(1H-1,2,3-triazol-4-yl)pyrrolidin-1-yl)-4,5-dihydroisoxazol-5-yl)-N-(5,6-difluoro-2,3-dihydro-1H-inden-2-yl)pyrimidin-2-amine]: the inhibition at 0.5 µM amounted to 39.5%.
Next, `NS(=O)(=O)C1CN(c2nnc(-c3cnc(NC4Cc5cc(F)c(F)cc5C4)nc3)o2)C1` [Example 46, 1-(5-(2-((5,6-difluoro-2,3-dihydro-1H-inden-2-yl)amino)pyrimidin-5-yl)-1,3,4-oxadiazol-2-yl)azetidine-3-sulfonamide]: 27.1%; `Cn1nncc1C1CN(c2nnc(-c3cnc(NC4Cc5cc(F)c(F)cc5C4)nc3)o2)C1` [Example 41, N-(5,6-difluoro-2,3-dihydro-1H-inden-2-yl)-5-(5-(3-(1-methyl-1H-1,2,3-triazol-5-yl)azetidin-1-yl)-1,3,4-oxadiazol-2-yl)pyrimidin-2-amine]: 70.6%; `Brc1ccc2c(c1)CC(Nc1ncc(-c3nnc(N4CCC(c5c[nH]nn5)C4)o3)cn1)C2` (centres unmarked) [Example 19, 5-(5-(3-(1H-1,2,3-triazol-4-yl)pyrrolidin-1-yl)-1,3,4-oxadiazol-2-yl)-N-(5-bromo-2,3-dihydro-1H-inden-2-yl)pyrimidin-2-amine]: 99.7%.
In the case of `FC1(c2c[nH]nn2)CN(c2nnc(-c3cnc(NC4Cc5ccccc5C4)nc3)o2)C1` [Example 83, N-(2,3-dihydro-1H-inden-2-yl)-5-(5-(3-fluoro-3-(1H-1,2,3-triazol-4-yl)azetidin-1-yl)-1,3,4-oxadiazol-2-yl)pyrimidin-2-amine] it was 81.6%; in that of `O=C(CCCc1nnc(NC2Cc3cc(F)c(F)cc3C2)o1)N1CC(c2c[nH]nn2)C1` [Example 90, 1-(3-(1H-1,2,3-triazol-4-yl)azetidin-1-yl)-4-(5-((5,6-difluoro-2,3-dihydro-1H-inden-2-yl)amino)-1,3,4-oxadiazol-2-yl)butan-1-one], 17.9%.
With `Cn1cc(C2CCN(c3nnc(-c4cnc(NC5Cc6cc(F)c(F)cc6C5)nc4)o3)C2)nn1` (centres unmarked) [Example 35, N-(5,6-difluoro-2,3-dihydro-1H-inden-2-yl)-5-(5-(3-(1-methyl-1H-1,2,3-triazol-4-yl)pyrrolidin-1-yl)-1,3,4-oxadiazol-2-yl)pyrimidin-2-amine], the inhibition at 0.5 µM stood at 1.3%.
Next, `c1cnc2c(c1)CC(Nc1ncc(-c3nnc(N4CCC(c5c[nH]nn5)C4)o3)cn1)C2` (centres unmarked) [Example 8, N-(5-(5-(3-(1H-1,2,3-triazol-4-yl)pyrrolidin-1-yl)-1,3,4-oxadiazol-2-yl)pyrimidin-2-yl)-6,7-dihydro-5H-cyclopenta[b]pyridin-6-amine]: 49.5%.
As to `CC(C)(C)C(=O)OCn1cc(C2CCN(c3nnc(-c4cnc(NCc5ccc6c(c5)OCO6)nc4)o3)C2)nn1` (centres unmarked) [Example 5, (4-(1-(5-(2-((benzo[d][1,3]dioxol-5-ylmethyl)amino)pyrimidin-5-yl)-1,3,4-oxadiazol-2-yl)pyrrolidin-3-yl)-1H-1,2,3-triazol-1-yl)methyl pivalate], the inhibition at 0.5 µM turned out to be 7.6%.
In the case of `Fc1cc(F)cc(CNc2ncc(-c3nnc(N4CCC(c5c[nH]nn5)C4)o3)cn2)c1` (centres unmarked) [Example 21, 5-(5-(3-(1H-1,2,3-triazol-4-yl)pyrrolidin-1-yl)-1,3,4-oxadiazol-2-yl)-N-(3,5-difluorobenzyl)pyrimidin-2-amine], testing at 0.5 µM gave an inhibition of 72.5%.
`CC(C)(C)C(=O)OCn1cc(C2CN(c3nnc(-c4cnc(NC5Cc6ccc(F)cc6C5)nc4)o3)C2)nn1` (centres unmarked) [Example 63, (4-(1-(5-(2-((5-fluoro-2,3-dihydro-1H-inden-2-yl)amino)pyrimidin-5-yl)-1,3,4-oxadiazol-2-yl)azetidin-3-yl)-1H-1,2,3-triazol-1-yl)methyl pivalate] yielded an inhibition at 0.5 µM of 1%.
Turning to `Fc1cc(F)cc(CNc2ncc(-c3nnc(N4CC(c5c[nH]nn5)C4)o3)cn2)c1` [Example 48, 5-(5-(3-(1H-1,2,3-triazol-4-yl)azetidin-1-yl)-1,3,4-oxadiazol-2-yl)-N-(3,5-difluorobenzyl)pyrimidin-2-amine], testing at 0.5 µM gave an inhibition of 39.2%.
Take `Fc1cc2c(cc1F)CC(Nc1cnc(-c3nnc(N4CC(c5c[nH]nn5)C4)o3)cn1)C2` [Example 60, 5-(5-(3-(1H-1,2,3-triazol-4-yl)azetidin-1-yl)-1,3,4-oxadiazol-2-yl)-N-(5,6-difluoro-2,3-dihydro-1H-inden-2-yl)pyrazin-2-amine]: the inhibition at 0.5 µM amounted to 1%.
Turning to `COC(=O)CC1CN(c2nnc(-c3cnc(NC4Cc5cc(F)c(F)cc5C4)nc3)o2)C1` [Example 52, Methyl 2-(1-(5-(2-((5,6-difluoro-2,3-dihydro-1H-inden-2-yl)amino)pyrimidin-5-yl)-1,3,4-oxadiazol-2-yl)azetidin-3-yl)acetate], at 0.5 µM the inhibition was 21.9%.
Take `COc1ccc2c(c1)CC(Nc1ncc(-c3nnc(N4CCC(c5c[nH]nn5)C4)o3)cn1)C2` (centres unmarked) [Example 13, 5-(5-(3-(1H-1,2,3-triazol-4-yl)pyrrolidin-1-yl)-1,3,4-oxadiazol-2-yl)-N-(5-methoxy-2,3-dihydro-1H-inden-2-yl)pyrimidin-2-amine]: the inhibition at 0.5 µM turned out to be 96.8%.
Regarding `COc1ccc2c(c1)CC(Nc1ncc(-c3nnc(N4CCC(c5cn(COC(=O)C(C)(C)C)nn5)C4)o3)cn1)C2` (centres unmarked) [Example 12, (4-(1-(5-(2-((5-methoxy-2,3-dihydro-1H-inden-2-yl)amino)pyrimidin-5-yl)-1,3,4-oxadiazol-2-yl)pyrrolidin-3-yl)-1H-1,2,3-triazol-1-yl)methyl pivalate], the inhibition at 0.5 µM is 4.1%.
In the case of `CC1(c2c[nH]nn2)CCN(c2nnc(-c3cnc(NCCc4cc(Cl)cc(Cl)c4)nc3)o2)C1` (centres unmarked) [Example 32, N-(3,5-dichlorophenethyl)-5-(5-(3-methyl-3-(1H-1,2,3-triazol-4-yl)pyrrolidin-1-yl)-1,3,4-oxadiazol-2-yl)pyrimidin-2-amine], the inhibition at 0.5 µM was found to be 21.9%.
In the case of `c1ccc2c(c1)CC(Nc1ncc(-c3nnc(N4CCC(c5c[nH]nn5)C4)o3)cn1)C2` (centres unmarked) [Example 1, 5-(5-(3-(1H-1,2,3-triazol-4-yl)pyrrolidin-1-yl)-1,3,4-oxadiazol-2-yl)-N-(2,3-dihydro-1H-inden-2-yl)pyrimidin-2-amine] it was 98%.
